# According to patent publication US20230106592A1, “METHOD FOR TREATING CANCER USING A COMBINATION OF DNA DAMAGING AGENTS AND ATR INHIBITORS” (Vertex Pharmaceuticals Incorporated, priority 2015, published 2023):
# Assay: Phase I trial, monotherapy: adverse events and DLTs
# Assay type: in vivo, human
# Source text: Pts with advanced solid tumors enrolled in 2 sequential parts.
# Eleven of the subjects were given a once weekly dosage of Compound A-2 as a monotherapy. Six of the subjects were given a twice weekly dosage of Compound A-2 as a monotherapy. […] DLTs were defined according to the National Cancer Institute (NCI) CTCAE (Version 4).
# In part A, single pt cohorts received a compound of Formula A-2 once weekly in 21-day cycles with 3+3 dose escalation cohorts being implemented if grade 2 drug-related adverse events (AEs) occurred. […] If a DLT was reported, the cohort was expanded to include 3 additional pts with subsequent dose escalation being permitted if no further DLTs occurred. Paired pre- and post-treatment biopsies from selected pts in part B were assessed for pCHK1 levels by immunohistochemistry. Models based on preclinical and clinical data were used to simulate hematologic toxicities and pCHK1 inhibition for pts treated with a compound of Formula A-2 and CP.
# [1] = monotherapy 240 mg/m^2 Once Weekly (n = 1)
# [2] = monotherapy 240 mg/m^2 Twice Weekly (n = 6)
# [3] = monotherapy 480 mg/m^2 Once Weekly (n = 7)
smiles,measurement,setting,value
CNCc1ccc(-c2cc(-c3nc(-c4ccc(S(=O)(=O)C(C)C)cc4)cnc3N)on2)cc1 [Compound A-2],"Treatment related adverse event: Pruritus, Grade ≥ 3",monotherapy 120 mg/m^2 Once Weekly (n = 2),0 n (%)
same,"Treatment related adverse event: Any Event, All Grades",[1],0 n (%)
same,"Treatment related adverse event: Any Event, Grade ≥ 3",[1],0 n (%)
same,"Treatment related adverse event: Catheter site related reaction, All Grades",[1],0 n (%)
same,"Treatment related adverse event: Catheter site related reaction, Grade ≥ 3",[1],0 n (%)
same,"Treatment related adverse event: Flushing, All Grades",[1],0 n (%)
same,"Treatment related adverse event: Flushing, Grade ≥ 3",[1],0 n (%)
same,"Treatment related adverse event: Headache, All Grades",[1],0 n (%)
same,"Treatment related adverse event: Headache, Grade ≥ 3",[1],0 n (%)
same,"Treatment related adverse event: Infusion related reaction, All Grades",[1],0 n (%)
same,"Treatment related adverse event: Infusion related reaction, Grade ≥ 3",[1],0 n (%)
same,"Treatment related adverse event: Nausea, All Grades",[1],0 n (%)
same,"Treatment related adverse event: Nausea, Grade ≥ 3",[1],0 n (%)
same,"Treatment related adverse event: Pruritus, All Grades",[1],0 n (%)
same,"Treatment related adverse event: Pruritus, Grade ≥ 3",[1],0 n (%)
same,"Treatment related adverse event: Any Event, All Grades",[2],6 (100) n (%)
same,"Treatment related adverse event: Any Event, Grade ≥ 3",[2],1 (16.7) n (%)
same,"Treatment related adverse event: Catheter site related reaction, All Grades",[2],2 (33.3) n (%)
same,"Treatment related adverse event: Catheter site related reaction, Grade ≥ 3",[2],0 n (%)
same,"Treatment related adverse event: Flushing, All Grades",[2],1 (16.7) n (%)
same,"Treatment related adverse event: Flushing, Grade ≥ 3",[2],0 n (%)
same,"Treatment related adverse event: Headache, All Grades",[2],0 n (%)
same,"Treatment related adverse event: Headache, Grade ≥ 3",[2],0 n (%)
same,"Treatment related adverse event: Infusion related reaction, All Grades",[2],4 (16.7) n (%)
same,"Treatment related adverse event: Infusion related reaction, Grade ≥ 3",[2],0 n (%)
same,"Treatment related adverse event: Nausea, All Grades",[2],0 n (%)
same,"Treatment related adverse event: Nausea, Grade ≥ 3",[2],0 n (%)
same,"Treatment related adverse event: Pruritus, All Grades",[2],0 n (%)
same,"Treatment related adverse event: Pruritus, Grade ≥ 3",[2],0 n (%)
same,"Treatment related adverse event: Any Event, All Grades",[3],7 (100) n (%)
same,"Treatment related adverse event: Any Event, Grade ≥ 3",[3],0 n (%)
same,"Treatment related adverse event: Catheter site related reaction, All Grades",[3],0 n (%)
same,"Treatment related adverse event: Catheter site related reaction, Grade ≥ 3",[3],0 n (%)
same,"Treatment related adverse event: Flushing, All Grades",[3],3 (42.9) n (%)
same,"Treatment related adverse event: Flushing, Grade ≥ 3",[3],0 n (%)
same,"Treatment related adverse event: Headache, All Grades",[3],2 (28.6) n (%)
same,"Treatment related adverse event: Headache, Grade ≥ 3",[3],0 n (%)
same,"Treatment related adverse event: Infusion related reaction, All Grades",[3],1 (14.3) n (%)
same,"Treatment related adverse event: Infusion related reaction, Grade ≥ 3",[3],0 n (%)
same,"Treatment related adverse event: Nausea, All Grades",[3],2 (28.6) n (%)
same,"Treatment related adverse event: Nausea, Grade ≥ 3",[3],0 n (%)
same,"Treatment related adverse event: Pruritus, All Grades",[3],2 (28.6) n (%)
same,"Treatment related adverse event: Pruritus, Grade ≥ 3",[3],0 n (%)
same,"Treatment related adverse event: Any Event, All Grades","monotherapy, Total (N = 17)",15 (88.2) n (%)
same,"Treatment related adverse event: Any Event, Grade ≥ 3","monotherapy, Total (N = 17)",1 (5.9) n (%)
same,"Treatment related adverse event: Catheter site related reaction, All Grades","monotherapy, Total (N = 17)",2 (11.8) n (%)
same,"Treatment related adverse event: Catheter site related reaction, Grade ≥ 3","monotherapy, Total (N = 17)",0 n (%)
same,"Treatment related adverse event: Flushing, All Grades","monotherapy, Total (N = 17)",4 (23.5) n (%)
same,"Treatment related adverse event: Flushing, Grade ≥ 3","monotherapy, Total (N = 17)",0 n (%)
same,"Treatment related adverse event: Headache, All Grades","monotherapy, Total (N = 17)",2 (11.8) n (%)
same,"Treatment related adverse event: Headache, Grade ≥ 3","monotherapy, Total (N = 17)",0 n (%)
same,"Treatment related adverse event: Infusion related reaction, All Grades","monotherapy, Total (N = 17)",2 (11.8) n (%)
same,"Treatment related adverse event: Infusion related reaction, Grade ≥ 3","monotherapy, Total (N = 17)",0 n (%)
same,"Treatment related adverse event: Nausea, All Grades","monotherapy, Total (N = 17)",2 (11.8) n (%)
same,"Treatment related adverse event: Nausea, Grade ≥ 3","monotherapy, Total (N = 17)",0 n (%)
same,"Treatment related adverse event: Pruritus, All Grades","monotherapy, Total (N = 17)",2 (11.8) n (%)
same,"Treatment related adverse event: Pruritus, Grade ≥ 3","monotherapy, Total (N = 17)",0 n (%)
same,Dose at which adverse events began,once weekly monotherapy,480 mg/m^2
